From patent publication EP4740948A1 (Dong Wha Pharm. Co., Ltd., priority 2023, dated 2025) come the findings set out here.

Assay [1] deals with NCI-H1299 cells. The assay can be described thus: Cancer cell proliferation inhibition (Cell Counting Kit-8), lung cancer cell line. Conditions: Homo sapiens, NCI-H1299, 264 h, 1000 nM, cultured seven to 11 days; read-out: % inhibition rate NCI-H129 9. The format is cell-based. In outline: (§1)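 Cells seeded at 100-1,000/well in medium with 10% FBS and treated with 1000 nM test substance for 7-11 days. Viability measured with Cell Counting Kit-8; % inhibition = {1−(test/control)} × 100.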

The subject of assay [2] is Lovo cells. The assay is described as follows: Cancer cell proliferation inhibition (Cell Counting Kit-8), colorectal cancer cell line. The class given is cell-based. Conditions: Homo sapiens, LoVo, 264 h, 1000 nM, cultured seven to 11 days; read-out: % inhibition rate LoVo. In outline:
as §1
In general terms: Tetrazolium dyes change colour on reduction, which living cells bring about.

For assay [3], the system named is SW-13 cells. The assay is described as follows: Cancer cell proliferation inhibition (Cell Counting Kit-8), adrenal cancer cell line. The class given is cell-based. Conditions: Homo sapiens, SW13, 264 h, 1000 nM, cultured seven to 11 days; read-out: % inhibition rate SW-13. In outline:
as §1

Assay [4] has as its target EZH1 (Homo sapiens, UniProt Q92800). The assay is described as follows: AlphaLISA enzyme activity inhibition, EZH1. Conditions: for inhibition at 0.005 µM: 5nM test substance; for inhibition at 0.01 µM: 10nM test substance. The format is biochemical. In a few lines: (§2)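 EZH1 or EZH2 was mixed with compound at 5 nM or 10 nM final in 20 mM Tris pH 8.0, 0.1% BSA, 0.5 mM DTT, then histone H3 peptide and SAM were added. After 2 h reaction, AlphaLISA acceptor and donor beads detected methylation; inhibition rate was calculated against DMSO control.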
(Alpha assays give light when donor and acceptor beads are brought close together.)

For assay [5], the target named is EZH2 (Homo sapiens, UniProt Q15910). The assay can be described thus: AlphaLISA enzyme activity inhibition, EZH2. The format is biochemical. Conditions: for inhibition at 0.005 µM: 5nM test substance; for inhibition at 0.01 µM: 10nM test substance. In outline:
as §2

For assay [6], the system named is MKN-45 cells. The assay is described as follows: Cancer cell proliferation inhibition (Cell Counting Kit-8), gastric cancer cell line. The class given is cell-based. Conditions: Homo sapiens, MKN-45, 264 h, 1000 nM, cultured seven to 11 days; read-out: % inhibition rate MKN -45. In outline:
(§3)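 Cells grown in RPMI1640, McCoy's 5a, L-15 or DMEM with 10% FBS, seeded at 100 to 1,000 cells/well and treated with test substance at 1000 nM for 7 to 11 days. Viability read by CCK-8; % inhibition = {1−(test/control)} × 100.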

Assay [7] has as its system G401 cells. The assay can be described thus: Cancer cell proliferation inhibition (Cell Counting Kit-8), rhabdoid tumor cell line. The format is cell-based. To be noted: Homo sapiens, G-401, 264 h, 1000 nM, cultured seven to 11 days; read-out: % inhibition rate G401. In outline: as §3
Assay [8] deals with MIA-PaCa-2 cells. The assay can be described thus: Cancer cell proliferation inhibition (Cell Counting Kit-8), pancreatic cancer cell line. The format is cell-based. Conditions: Homo sapiens, MIA PaCa-2, 264 h, 1000 nM, cultured seven to 11 days; read-out: % inhibition rate MIA-Paca2. In outline:
as §1

As a reminder, the inhibition is the relative decrease from the control value, in per cent.

Chain of EZH2 (Q15910 whole entry, species assumed): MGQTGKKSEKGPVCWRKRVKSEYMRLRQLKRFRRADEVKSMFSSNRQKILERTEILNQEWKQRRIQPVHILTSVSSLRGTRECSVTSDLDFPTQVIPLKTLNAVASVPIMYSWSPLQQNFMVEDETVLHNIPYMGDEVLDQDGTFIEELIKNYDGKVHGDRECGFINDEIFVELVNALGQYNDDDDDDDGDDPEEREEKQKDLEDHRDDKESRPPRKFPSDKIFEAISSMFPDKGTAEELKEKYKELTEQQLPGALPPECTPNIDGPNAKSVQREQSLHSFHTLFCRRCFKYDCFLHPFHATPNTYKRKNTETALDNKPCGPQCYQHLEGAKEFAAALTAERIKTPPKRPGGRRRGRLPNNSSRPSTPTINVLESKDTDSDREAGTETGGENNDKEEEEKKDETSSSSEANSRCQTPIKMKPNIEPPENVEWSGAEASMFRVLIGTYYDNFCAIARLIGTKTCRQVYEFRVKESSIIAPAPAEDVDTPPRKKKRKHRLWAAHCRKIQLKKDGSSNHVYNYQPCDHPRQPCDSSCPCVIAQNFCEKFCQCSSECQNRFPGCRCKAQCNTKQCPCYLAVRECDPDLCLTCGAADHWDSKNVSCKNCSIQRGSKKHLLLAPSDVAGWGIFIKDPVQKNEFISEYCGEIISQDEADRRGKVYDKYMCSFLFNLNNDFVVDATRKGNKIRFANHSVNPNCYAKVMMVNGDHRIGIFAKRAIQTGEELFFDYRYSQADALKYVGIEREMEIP
Chain of EZH2 (O75530 whole entry partner, species assumed): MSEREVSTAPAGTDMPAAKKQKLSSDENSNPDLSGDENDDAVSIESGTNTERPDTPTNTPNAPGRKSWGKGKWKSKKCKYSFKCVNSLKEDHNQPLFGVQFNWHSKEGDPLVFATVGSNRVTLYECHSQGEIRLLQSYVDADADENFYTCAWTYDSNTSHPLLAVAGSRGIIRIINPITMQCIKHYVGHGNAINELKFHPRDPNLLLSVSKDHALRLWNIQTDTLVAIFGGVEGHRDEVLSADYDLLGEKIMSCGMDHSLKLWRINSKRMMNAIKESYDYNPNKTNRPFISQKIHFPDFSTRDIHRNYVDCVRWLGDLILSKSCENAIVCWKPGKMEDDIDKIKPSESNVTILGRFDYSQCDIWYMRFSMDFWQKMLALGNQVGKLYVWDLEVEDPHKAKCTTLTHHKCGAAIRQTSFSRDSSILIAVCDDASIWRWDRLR
Chain of EZH2 (Q15022 whole entry partner, species assumed): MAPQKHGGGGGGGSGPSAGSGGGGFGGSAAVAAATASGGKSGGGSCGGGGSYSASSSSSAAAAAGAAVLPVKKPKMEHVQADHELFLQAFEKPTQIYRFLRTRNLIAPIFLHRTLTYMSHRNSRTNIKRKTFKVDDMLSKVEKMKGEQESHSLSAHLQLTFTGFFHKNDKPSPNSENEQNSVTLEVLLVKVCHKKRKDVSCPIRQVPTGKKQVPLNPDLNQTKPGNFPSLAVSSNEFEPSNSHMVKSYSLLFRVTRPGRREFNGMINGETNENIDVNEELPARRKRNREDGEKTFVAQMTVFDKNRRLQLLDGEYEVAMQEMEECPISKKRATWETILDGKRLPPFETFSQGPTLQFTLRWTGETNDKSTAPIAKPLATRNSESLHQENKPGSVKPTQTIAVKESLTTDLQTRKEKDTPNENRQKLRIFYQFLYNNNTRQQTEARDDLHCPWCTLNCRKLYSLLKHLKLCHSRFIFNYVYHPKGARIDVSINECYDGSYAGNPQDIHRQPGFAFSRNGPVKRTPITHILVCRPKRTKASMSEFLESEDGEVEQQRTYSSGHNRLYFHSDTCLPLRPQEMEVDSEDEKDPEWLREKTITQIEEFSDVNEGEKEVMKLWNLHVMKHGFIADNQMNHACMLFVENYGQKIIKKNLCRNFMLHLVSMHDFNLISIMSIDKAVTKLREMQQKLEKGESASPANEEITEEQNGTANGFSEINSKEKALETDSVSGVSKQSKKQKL
Chain of EZH1 (Q92800 whole entry, species assumed): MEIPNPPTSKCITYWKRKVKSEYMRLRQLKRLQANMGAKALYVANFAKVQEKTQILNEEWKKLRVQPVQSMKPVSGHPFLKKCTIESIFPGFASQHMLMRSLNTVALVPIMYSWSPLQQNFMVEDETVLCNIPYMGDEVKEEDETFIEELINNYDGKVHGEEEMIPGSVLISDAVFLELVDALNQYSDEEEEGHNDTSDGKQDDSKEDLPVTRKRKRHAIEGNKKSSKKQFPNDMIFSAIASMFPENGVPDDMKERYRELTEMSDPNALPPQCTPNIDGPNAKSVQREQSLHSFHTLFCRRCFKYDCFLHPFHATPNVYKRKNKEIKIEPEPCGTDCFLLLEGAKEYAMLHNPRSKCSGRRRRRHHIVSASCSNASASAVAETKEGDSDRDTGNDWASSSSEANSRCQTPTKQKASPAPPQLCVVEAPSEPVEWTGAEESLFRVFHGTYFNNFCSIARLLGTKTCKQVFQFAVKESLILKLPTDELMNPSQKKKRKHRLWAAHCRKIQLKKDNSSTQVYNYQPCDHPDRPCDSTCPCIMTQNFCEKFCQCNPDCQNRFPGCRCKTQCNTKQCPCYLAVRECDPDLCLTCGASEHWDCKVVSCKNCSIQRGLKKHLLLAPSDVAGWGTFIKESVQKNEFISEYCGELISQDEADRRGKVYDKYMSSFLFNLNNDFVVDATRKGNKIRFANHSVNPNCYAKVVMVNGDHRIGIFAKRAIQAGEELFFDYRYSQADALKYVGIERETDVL
Chain of EZH1 (O75530 whole entry partner, species assumed): as the sequence (O75530 whole entry partner, species assumed) above
Chain of EZH1 (Q15022 whole entry partner, species assumed): as the sequence (Q15022 whole entry partner, species assumed) above

Regarding `CSc1cc(C)[nH]c(=O)c1CNC(=O)c1cc(-c2ccc(N3CCCCC3)cc2)c2c(c1C)OC(C)(C1CCN(CC(F)(F)F)CC1)O2` (stereo not shown) [Compound 90, 2,4-dimethyl-N-((6-methyl-4-(methylthio)-2-oxo-1,2-dihydropyridin-3-yl)methyl)-7-(4-(piperidin-1-yl)phenyl)-2-(1-(2,2,2-trifluoroethyl)piperidin-4-yl)benzo[d][1,3]dioxole-5-carboxamide], the inhibition at 1 µM in assay [1] is at most 30%; in assay [2], at least 70%; in assay [3], at most 30%; in assay [6] it was at most 30%; in assay [7], 30 to 70%; in assay [8], at most 30%. Moreover, the inhibition at 0.005 µM in assay [4] worked out at 20.2%; in assay [5] it was 60.1%. For the same molecule, the values for the inhibition at 0.01 µM in assay [4] and in assay [5] were 16.2% and 82.3%, respectively.

As to `CSc1cc(C)[nH]c(=O)c1CNC(=O)c1cc(-c2ccc(N3C[C@@H](C)O[C@@H](C)C3)nc2)c2c(c1C)OC(C)([C@H]1CC[C@H](N(C)C(C)C)CC1)O2` (stereo partly drawn) [Compound 110, 7-(6-((2S,6R)-2,6-dimethylmorpholino)pyridin-3-yl)-2-(trans-4-(isopropyl(methyl)amino)cyclohexyl)-2,4-dimethyl-N-((6-methyl-4-(methylthio)-2-oxo-1,2-dihydropyridin-3-yl)methyl)benzo[d][1,3]dioxole-5-carboxamide], the inhibition at 1 µM in assay [1] is at most 30%; in assay [2], at least 70%; in assay [3] it was 30 to 70%; in assay [6], at most 30%; in assay [7], at least 70%; in assay [8] it was at most 30%. Moreover, the inhibition at 0.005 µM in assay [4] amounted to 52%; in assay [5], 99.8%. The results for the inhibition at 0.01 µM in assay [4] and in assay [5] were 91.9% and 100%, respectively.

For `CSc1cc(C)[nH]c(=O)c1CNC(=O)c1cc(-c2ccc(N3C[C@@H](C)O[C@@H](C)C3)nc2)c2c(c1C)OC(C)([C@H]1CC[C@H](N(C)C(=O)C(F)(F)F)CC1)O2` (stereo partly drawn) [Compound 115, 7-(6-((2S,6R)-2,6-dimethylmorpholino)pyridin-3-yl)-2,4-dimethyl-N-((6-methyl-4-(methylthio)-2-oxo-1,2-dihydropyridin-3-yl)methyl)-2-(trans-4-(2,2,2-trifluoro-N-methylacetamido)cyclohexyl)benzo[d][1,3]dioxole-5-carboxamide], the inhibition at 1 µM in assay [1] was at most 30%; in assay [2], at least 70%; in assay [3], at most 30%; in assay [6] it was at most 30%; in assay [7], 30 to 70%; in assay [8], at most 30%. Further, the inhibition at 0.005 µM in assay [4] was determined as 6.1%; in assay [5], 37.3%. Further, the inhibition at 0.01 µM in assay [4] came out at 9.6%; in assay [5] it was 85.8%.

On to `CCN(C)[C@H]1CC[C@H](C2(C)Oc3c(-c4ccc(N5C[C@@H](C)O[C@@H](C)C5)nc4)cc(C(=O)NCc4c(SC)cc(C)[nH]c4=O)c(C)c3O2)CC1` (stereo partly drawn) [Compound 111, 7-(6-((2S,6R)-2,6-dimethylmorpholino)pyridin-3-yl)-2-(trans-4-(ethyl(methyl)amino)cyclohexyl)-2,4-dimethyl-N-((6-methyl-4-(methylthio)-2-oxo-1,2-dihydropyridin-3-yl)methyl)benzo[d][1,3]dioxole-5-carboxamide], for which the inhibition at 1 µM in assay [1] was at most 30%; in assay [2], at least 70%; in assay [3] it was 30 to 70%; in assay [6], at most 30%; in assay [7], at least 70%; in assay [8], at most 30%. In addition, the inhibition at 0.005 µM came to 28.1% in assay [4] and 86.7% in assay [5]. Further, the inhibition at 0.01 µM was 62.1% in assay [4] and 100% in assay [5].
